Data: patent US11608320B2, “Oxazolidinone hydroxamic acid derivatives” (KUWAIT UNIVERSITY, priority 2020, dated 2023)

What was measured:
[1] = biological target: T1, recombinant human 5-LO enzyme (Homo sapiens, UniProt P09917); test: Direct 5-LO inhibitory activity in a cell-free assay (H2DCF-DA fluorescence); format: biochemical; conditions: cell-free, recombinant human 5-LO; read-out: Inhibitory Activity IC50, Human recomb. 5-LO
T1 sequence (P09917 1-674): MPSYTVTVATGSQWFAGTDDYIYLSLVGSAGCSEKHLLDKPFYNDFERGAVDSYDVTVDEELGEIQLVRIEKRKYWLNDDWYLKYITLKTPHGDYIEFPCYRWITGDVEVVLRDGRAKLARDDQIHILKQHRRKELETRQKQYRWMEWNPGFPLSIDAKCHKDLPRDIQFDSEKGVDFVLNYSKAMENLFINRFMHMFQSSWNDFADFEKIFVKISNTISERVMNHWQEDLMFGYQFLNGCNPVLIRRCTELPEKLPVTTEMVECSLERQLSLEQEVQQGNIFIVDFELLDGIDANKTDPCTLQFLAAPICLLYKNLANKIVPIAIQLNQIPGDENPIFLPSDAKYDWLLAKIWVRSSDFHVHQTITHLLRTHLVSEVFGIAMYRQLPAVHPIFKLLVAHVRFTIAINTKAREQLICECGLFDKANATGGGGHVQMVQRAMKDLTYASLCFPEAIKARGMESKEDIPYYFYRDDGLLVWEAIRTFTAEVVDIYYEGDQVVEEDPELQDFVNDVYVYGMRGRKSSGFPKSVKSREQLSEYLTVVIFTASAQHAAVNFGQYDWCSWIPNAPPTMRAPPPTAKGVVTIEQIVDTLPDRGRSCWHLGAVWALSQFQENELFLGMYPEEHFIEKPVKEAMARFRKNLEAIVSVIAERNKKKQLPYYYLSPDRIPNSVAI
Protocol: H2DCF-DA (60 μM) was first pre-cleaved by incubating with 450 mU/ml recombinant human 5-LO enzyme in Tris buffer (containing 50 mM Tris, pH=7.5, 2 mM EDTA, 2 mM CaCl2), 1 mM dithiothreitol (DTT) and 0.6 U/ml glutathione peroxidase) for 10 min at room temperature. […] After 10 min incubation at room temperature, the reaction was started with the addition of 50 μl of the substrate solution (Tris buffer containing 20 μM ATP and 20 μM arachidonic acid). After a further 20 min, the reaction was terminated with 100 μl acetonitrile. Fluorescence was read at 500 nm excitation and 520 emission, with Novostar® microplate reader (BMG Labtech, Offenburg, Germany). Appropriate controls, including 100 μM nordihydroguaiaretic acid (NDGA), were included to isolate only the 5-LO-attributable, NDGA-inhibitable RFU values.

melting point [°C] | IC50 [1] [µM] | Structure (SMILES)
132 to 133.5 |  | O=C(C1CCC1)N(O)C[C@H]1CN(c2ccc(N3CCOCC3)c(F)c2)C(=O)O1 [PH-245, (R)—N-((3-(3-fluoro-4-morpholinophenyl)-2-oxooxazolidin-5-yl)methyl)-N-hydroxycyclobutane-carboxamide]
164.5 to 166.5 |  | O=C(C1CCCC1)N(O)C[C@H]1CN(c2ccc(N3CCOCC3)c(F)c2)C(=O)O1 [PH-244, (R)—N-((3-(3-fluoro-4-morpholinophenyl)-2-oxooxazolidin-5-yl)methyl)-N-hydroxycyclopentane-carboxamide]
122 to 124.5 | 4.7 | CC(C)CC(=O)N(O)C[C@H]1CN(c2ccc(N3CCOCC3)c(F)c2)C(=O)O1 [PH-239, (R)—N-((3-(3-fluoro-4-morpholinophenyl)-2-oxooxazolidin-5-yl)methyl)-N-hydroxy-3-methylbutanamide]
121 to 122.5 | 3.3 | CCCCC(=O)N(O)C[C@H]1CN(c2ccc(N3CCOCC3)c(F)c2)C(=O)O1 [PH-241, (R)—N-((3-(3-fluoro-4-morpholinophenyl)-2-oxooxazolidin-5-yl)methyl)-N-hydroxypentanamide]
